{"source": "ChEMBL document CHEMBL2074209", "about": "“Coinduction of MDR-1 multidrug-resistance and cytochrome P-450 genes in rat liver by xenobiotics” (J Natl Cancer Inst, 1988)", "molecular_target": "Multidrug resistance protein 1a (Rattus norvegicus) (UniProt Q6PSM0)", "sequence (Q6PSM0 as listed by the source)": "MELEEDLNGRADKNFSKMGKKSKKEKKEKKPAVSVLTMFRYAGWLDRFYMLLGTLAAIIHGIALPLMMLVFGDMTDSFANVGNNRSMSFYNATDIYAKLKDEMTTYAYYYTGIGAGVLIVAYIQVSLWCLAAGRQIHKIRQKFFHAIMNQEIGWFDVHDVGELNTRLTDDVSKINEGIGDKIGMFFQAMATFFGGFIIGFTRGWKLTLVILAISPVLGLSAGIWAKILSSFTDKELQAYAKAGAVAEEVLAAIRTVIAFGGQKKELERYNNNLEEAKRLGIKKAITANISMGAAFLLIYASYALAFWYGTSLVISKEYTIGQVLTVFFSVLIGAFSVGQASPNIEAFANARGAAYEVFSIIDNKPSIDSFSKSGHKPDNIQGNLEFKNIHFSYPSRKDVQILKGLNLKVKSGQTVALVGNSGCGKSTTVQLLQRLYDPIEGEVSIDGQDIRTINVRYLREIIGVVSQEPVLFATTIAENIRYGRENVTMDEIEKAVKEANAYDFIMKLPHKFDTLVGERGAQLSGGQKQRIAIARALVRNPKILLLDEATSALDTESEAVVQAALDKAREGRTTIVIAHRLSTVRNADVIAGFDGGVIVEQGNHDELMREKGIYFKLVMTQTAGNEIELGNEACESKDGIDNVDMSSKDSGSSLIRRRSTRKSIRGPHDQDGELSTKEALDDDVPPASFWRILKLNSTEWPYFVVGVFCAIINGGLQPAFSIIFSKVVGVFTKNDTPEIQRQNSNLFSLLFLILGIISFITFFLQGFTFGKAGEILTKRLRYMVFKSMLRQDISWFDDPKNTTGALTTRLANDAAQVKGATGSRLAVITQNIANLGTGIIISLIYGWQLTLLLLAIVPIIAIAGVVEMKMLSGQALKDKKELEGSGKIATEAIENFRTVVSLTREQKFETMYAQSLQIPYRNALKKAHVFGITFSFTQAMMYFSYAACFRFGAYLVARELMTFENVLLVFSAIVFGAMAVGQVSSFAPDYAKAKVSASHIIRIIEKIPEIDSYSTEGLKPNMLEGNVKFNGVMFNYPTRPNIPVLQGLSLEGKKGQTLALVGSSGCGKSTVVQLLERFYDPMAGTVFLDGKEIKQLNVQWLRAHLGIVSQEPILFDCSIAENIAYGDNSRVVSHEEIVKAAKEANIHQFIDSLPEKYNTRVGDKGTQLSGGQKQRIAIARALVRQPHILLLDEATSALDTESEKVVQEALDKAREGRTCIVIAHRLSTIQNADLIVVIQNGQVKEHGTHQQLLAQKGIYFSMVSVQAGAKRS", "test": "TP_TRANSPORTER: Northern blot in vivo Fischer male rat", "type": "functional, organism-based"}
{"compound": "COc1cc2c(c3oc(=O)c4c(c13)CCC4=O)[C@@H]1C=CO[C@@H]1O2", "values": [{"measurement": "Activity", "result": "inducer [+]"}]}
{"compound": "Clc1cc2c(cc1Cl)Oc1cc(Cl)c(Cl)cc1O2", "values": [{"measurement": "Activity", "result": "inducer [+]"}]}
{"compound": "C/C=C/c1ccc2c(c1)OCO2", "values": [{"measurement": "Activity", "result": "inducer [+]"}]}
{"compound": "CC(=O)N(O)c1ccc2c(c1)Cc1ccccc1-2", "values": [{"measurement": "Activity", "result": "inducer [+]"}]}
{"compound": "c1ccc2c(c1)Nc1ccccc1S2", "values": [{"measurement": "Activity", "result": "inducer [+]"}]}
